Assay [1] has as its system MCF7. The assay can be described thus: Cytotoxicity against human MCF7 cells at 100 ug/ml after 48 hrs by MTT assay. The format is functional, cell-based. (Tetrazolium assays rely on reduction of a dye to a coloured formazan, in cell work by metabolically active cells.)
The test system of assay [2] is MCF7. The assay can be described thus: Cytotoxicity against human MCF7 cells at 5 ug/ml after 48 hrs by MTT assay. The format is functional, cell-based.

The structures appear in SMILES notation. Calls of active or inactive are those of the source. The calls are words filed in the database; no cut-off is given here.

Regarding `CC(C)[C@H]1CC[C@@H]2C(=O)C=C(CO)CC[C@@]21C` (relative stereo), the result with MCF7 [1] was inactive.

Turning to `CC(C)[C@H]1CC[C@@H]2C=CC(=O)CC[C@]12C` (relative stereo), in the assay with MCF7 [2], the outcome was Active.

For the compound `CC1=CC(=O)[C@H]2CC[C@H](C(C)C)[C@@]2(C)CC1` (relative stereo), in the assay on MCF7 [1], the outcome was inactive.
